Experimental data reported in patent US11254663B2 (BRISTOL-MYERS SQUIBB COMPANY, priority 2019, dated 2022).
Where two headings read alike, the source gives them in different places.

Target: FXR (Homo sapiens (Human), UniProt Q96RI1)
Test: transient human FXR/Gal4-luciferase reporter assay
Format: cell-based
Procedure, shortened: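 Compound exposure ran overnight at 37 °C and activity was measured as luminescence with Steady-Glo reagent. The cells were a HEK293 line stably expressing firefly luciferase under five Gal4 response elements. They were transiently transfected, one night beforehand, with a plasmid encoding Gal4 DNA-binding domain fused to the human FXR ligand-binding domain.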

[1] = Gal4-hFXR fusion construct, HEK293 reporter cells, response relative to 8 μM GW-4064

FXR, sequence (Q96RI1 262-486): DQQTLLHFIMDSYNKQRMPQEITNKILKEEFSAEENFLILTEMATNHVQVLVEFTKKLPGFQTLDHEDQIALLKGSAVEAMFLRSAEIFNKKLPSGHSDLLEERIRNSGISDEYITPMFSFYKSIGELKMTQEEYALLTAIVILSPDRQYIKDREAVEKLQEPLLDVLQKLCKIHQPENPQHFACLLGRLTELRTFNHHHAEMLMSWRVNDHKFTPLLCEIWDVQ

SMILES	EC50 [1]	EC50
N#Cc1ccc(-c2cccc(N(CC34CCC(c5nc(C6CC6)no5)(CC3)CC4)C(=O)C34CC(F)(C3)C4)c2)nc1 [Example 297, N-(3-(5-cyanopyridin-2-yl)phenyl)-N-((4-(3-cyclopropyl-1,2,4-oxadiazol-5-yl)bicyclo[2.2.2]octan-1-yl)methyl)-3-fluorobicyclo[1.1.1]pentane-1-carboxamide]	1.25 µM	
O=C(N(CC12CCC(c3nc(C4CC4)no3)(CC1)CC2)c1cccc(-c2nc(C(F)(F)F)ccc2F)c1)C12CC(F)(C1)C2 [Example 293, N-((4-(3-cyclopropyl-1,2,4-oxadiazol-5-yl)bicyclo[2.2.2]octan-1-yl)methyl)-3-fluoro-N-(3-(3-fluoro-6-(trifluoromethyl)pyridin-2-yl)phenyl)bicyclo[1.1.1]pentane-1-carboxamide]	0.679 µM	
CCOc1ccc(-c2cncc(N(CC34CCC(c5noc(C(C)(C)C)n5)(CC3)CC4)C(=O)C34CC(F)(C3)C4)c2)cc1 [Example 482, N-((4-(5-(tert-butyl)-1,2,4-oxadiazol-3-yl)bicyclo[2.2.2]octan-1-yl)methyl)-N-(5-(4-ethoxyphenyl)pyridin-3-yl)-3-fluorobicyclo[1.1.1]pentane-1-carboxamide]		0.322 µM
CC1(c2nc(C34CCC(CN(C(=O)C56CC(F)(C5)C6)c5cccc(-c6ccc(NS(=O)(=O)C7CC7)cc6)c5)(CC3)CC4)no2)CC1 [Example 397, N-(4′-(cyclopropanesulfonamido)-[1,1′-biphenyl]-3-yl)-3-fluoro-N-((4-(5-(1-methylcyclopropyl)-1,2,4-oxadiazol-3-yl)bicyclo[2.2.2]octan-1-yl)methyl) bicyclo[1.1.1]pentane-1-carboxamide]	0.183 µM	
CC(C)(C)c1noc(C23CCC(CN(C(=O)C45CC(F)(C4)C5)c4cncc(-c5cnc(C6CC6)nc5)c4)(CC2)CC3)n1 [Example 473, N-((4-(3-(tert-butyl)-1,2,4-oxadiazol-5-yl)bicyclo[2.2.2]octan-1-yl)methyl)-N-(5-(2-cyclopropylpyrimidin-5-yl)pyridin-3-yl)-3-fluorobicyclo[1.1.1]pentane-1-carboxamide]		0.501 µM
Cn1nc(C23CCC(CN(C(=O)C45CC(F)(C4)C5)c4cccc(-c5cnc6nc(C7CC7)sc6c5)c4)(CC2)CC3)cc1C1CC1 [Example 410, N-((4-(5-cyclopropyl-1-methyl-1H-pyrazol-3-yl)bicyclo[2.2.2]octan-1-yl)methyl)-N-(3-(2-cyclopropylthiazolo[4,5-b]pyridin-6-yl)phenyl)-3-fluorobicyclo[1.1.1]pentane-1-carboxamide]	0.465 µM	
Cn1nc(C23CCC(CN(C(=O)C45CC(F)(C4)C5)c4cccc(-c5ccc6[nH]c(=O)oc6c5)c4)(CC2)CC3)cc1C1CC1 [Example 411, N-((4-(5-cyclopropyl-1-methyl-1H-pyrazol-3-yl)bicyclo[2.2.2]octan-1-yl)methyl)-3-fluoro-N-(3-(2-oxo-2,3-dihydrobenzo[d]oxazol-6-yl)phenyl)bicyclo[1.1.1]pentane-1-carboxamide]	0.144 µM	
CC(C)Oc1ccc(-c2cccc(N(CC34CCC(c5noc(C(C)(F)F)n5)(CC3)CC4)C(=O)NC3CCOCC3)c2)cc1 [Example 652, 1-((4-(5-(1,1-difluoroethyl)-1,2,4-oxadiazol-3-yl)bicyclo[2.2.2]octan-1-yl)methyl)-1-(4′-isopropoxy-[1,1′-biphenyl]-3-yl)-3-(tetrahydro-2H-pyran-4-yl)urea]	0.379 µM	
CC(C)(C)c1nc(C23CCC(CN(C(=O)C45CC(F)(C4)C5)c4cc(-c5ncc(OC(F)F)cn5)ccn4)(CC2)CC3)no1 [Example 541, N-((4-(5-(tert-butyl)-1,2,4-oxadiazol-3-yl)bicyclo[2.2.2]octan-1-yl)methyl)-N-(4-(5-(difluoromethoxy)pyrimidin-2-yl)pyridin-2-yl)-3-fluorobicyclo[1.1.1]pentane-1-carboxamide]	0.018 µM	
Cc1nc2ccc(-c3cccc(N(CC45CCC(c6noc(C7(C(F)(F)F)CC7)n6)(CC4)CC5)C(=O)C45CC(F)(C4)C5)c3)cc2s1 [Example 524, 3-fluoro-N-(3-(2-methylbenzo[d]thiazol-6-yl)phenyl)-N-((4-(5-(1-(trifluoromethyl)cyclopropyl)-1,2,4-oxadiazol-3-yl)bicyclo[2.2.2]octan-1-yl)methyl)bicyclo[1.1.1]pentane-1-carboxamide]		0.119 µM
Cc1nc2ccc(-c3cccc(N(CC45CCC(c6ccc(C7(C#N)CC7)cc6)(CC4)OC5)C(=O)C45CC(F)(C4)C5)c3)cc2o1 [Example 347, N-((1-(4-(1-cyanocyclopropyl)phenyl)-2-oxabicyclo[2.2.2]octan-4-yl)methyl)-3-fluoro-N-(3-(2-methylbenzo[d]oxazol-6-yl)phenyl)bicyclo[1.1.1]pentane-1-carboxamide]	0.123 µM	
CC(C)(O)c1ccc(-c2cccc(N(CC34CCC(c5noc(C(C)(C)F)n5)(CC3)CC4)C(=O)N3CCN(CC(F)(F)F)CC3)c2)cc1 [Example 645]		0.229 µM
CC(C)(C)c1nc(C23CCC(CN(C(=O)C45CC(F)(C4)C5)c4cccc(-c5ccc(OC(F)F)cn5)c4)(CC2)CC3)no1 [Example 455, N-((4-(5-(tert-butyl)-1,2,4-oxadiazol-3-yl)bicyclo[2.2.2]octan-1-yl)methyl)-N-(3-(5-(difluoromethoxy)pyridin-2-yl)phenyl)-3-fluorobicyclo[1.1.1]pentane-1-carboxamide]	0.017 µM	
COCc1ccc(-c2cccc(N(CC34CCC(c5nc(C6CC6)no5)(CC3)CC4)C(=O)C34CC(F)(C3)C4)c2)cc1 [Example 273, N-((4-(3-cyclopropyl-1,2,4-oxadiazol-5-yl)bicyclo[2.2.2]octan-1-yl)methyl)-3-fluoro-N-(4′-(methoxymethyl)-[1,1′-biphenyl]-3-yl)bicyclo[1.1.1]pentane-1-carboxamide]	0.052 µM	
CC(C)c1noc(C23CCC(CN(C(=O)C45CC(F)(C4)C5)c4cccc(-c5ccc(NS(=O)(=O)C6CC6)cc5)c4)(CC2)CC3)n1 [Example 379, N-(4′-(cyclopropanesulfonamido)-[1,1′-biphenyl]-3-yl)-3-fluoro-N-((4-(3-isopropyl-1,2,4-oxadiazol-5-yl)bicyclo[2.2.2]octan-1-yl)methyl)bicyclo[1.1.1]pentane-1-carboxamide]	0.132 µM	
COc1cnc(-c2cccc(N(CC34CCC(c5nc(C6CC6)no5)(CC3)CC4)C(=O)C34CC(F)(C3)C4)c2)nc1 [Example 334, N-((4-(3-cyclopropyl-1,2,4-oxadiazol-5-yl)bicyclo[2.2.2]octan-1-yl)methyl)-3-fluoro-N-(3-(5-methoxypyrimidin-2-yl)phenyl)bicyclo[1.1.1]pentane-1-carboxamide]	0.077 µM	
O=C(N(CC12CCC(c3nc(C4CC4)no3)(CC1)CC2)c1cccc(-c2cc(F)c3nccn3c2)c1)C12CC(F)(C1)C2 [Example 317, N-((4-(3-cyclopropyl-1,2,4-oxadiazol-5-yl)bicyclo[2.2.2]octan-1-yl)methyl)-3-fluoro-N-(3-(8-fluoroimidazo[1,2-a]pyridin-6-yl)phenyl)bicyclo[1.1.1]pentane-1-carboxamide]	0.887 µM	
CC(C)(O)c1ccc(-c2cccc(N(CC34CCC(c5noc(C(C)(C)F)n5)(CC3)CC4)C(=O)NCCC3(O)CCCC3)c2)cc1 [Example 650, 1-((4-(5-(2-fluoropropan-2-yl)-1,2,4-oxadiazol-3-yl)bicyclo[2.2.2]octan-1-yl)methyl)-3-(2-(1-hydroxycyclopentyl)ethyl)-1-(4′-(2-hydroxypropan-2-yl)-[1,1′-biphenyl]-3-yl)urea]		0.472 µM
